# Test results: patent US20240317758A1 (Halia Therapeutics, Inc., priority 2021, published 2024)
# pIC50: −log10 of the molar value.
# Biological target: T1, full-length recombinant human NEK7 (Homo sapiens, UniProt Q8TDX7)
# T1 construct: full-length recombinant human NEK7; GST (N); purchased SignalChem NO9-10G; host or cells: Sf9 insect cells (baculovirus)
# Assay: NEK7 enzymatic assay
# Assay type: biochemical
# Conditions: recombinant human NEK7, casein substrate, radiolabelled ATP
# Procedure: Casein substrate (from bovine milk, hydrolyzed and partially dephosphorylated mixture of α, β and κ caseins, obtained from Sigma Aldrich, catalogue #C4765, diluted in distilled water to a final concentration of 1 mg/mL) and full-length recombinant human NEK7 (expressed by baculovirus in Sf9 insect cells using a N-terminal GST tag, obtained from SignalChem, catalogue #NO9-10G, 0.1 μg/μL) were mixed in assay buffer (20 mM Hepes pH 7.5, 10 mM MgCl2, 1 mM EGTA, 0.02% Brij35, 0.02 mg/ml BSA, 0.1 mM Na3VO4, 2 mM DTT, 1% DMSO). Compounds of interest (serial 3-fold dilution in DMSO from 10 μM to 0.5 nM) or vehicle (1% DMSO) were dispensed into the kinase reaction mixture by Acoustic technology (Echo550; nanoliter range). After incubation at room temperature for 20 minutes, the kinase reaction was initiated by addition of [^33P]-ATP (specific activity 10 μCi/μl) and the mixture was incubated at room temperature for 2 hours. The reaction was then stopped by spotting the reaction mixture on strips of phosphocellulose P81 paper. Following washing, the radioactivity of the P81 paper was measured and kinase activity data were expressed as the percent remaining kinase activity in test samples compared to vehicle reactions. IC50 values and curve fits were obtained using Prism (GraphPad Software).
# Casein substrate (from bovine milk, hydrolyzed and partially dephosphorylated mixture of α, β and κ caseins, obtained from Sigma Aldrich, catalogue #C4765, diluted in distilled water to a final concentration of 1 mg/mL, assay concentration 20 μM) and full-length recombinant human Nek7 (expressed by baculovirus in Sf9 insect cells using a N-terminal GST tag, obtained from SignalChem, catalogue #NO9-10G, 0.1 μg/μL, assay concentration 70 nM) were mixed in assay buffer (20 mM Hepes pH 7.5, 10 mM MgCl2, 1 mM EGTA, 0.02% Brij35, 0.02 mg/ml BSA, 0.1 mM […], 2 mM DTT, 1% DMSO). Compounds of interest (in DMSO, serial 3-fold dilution from 10 μM to 0.5 nM) or control (1% DMSO) were dispensed into the kinase reaction mixture by Acoustic technology (Echo550; nanoliter range). After incubation at room temperature for 20 minutes, the kinase reaction was initiated by addition of [^32P]-ATP (Specific activity 10 μCi/μl) and the mixture was incubated at room temperature for 2 hours. The reaction was then stopped by spotting the reaction mixture on strips of phosphocellulose P81 paper. Following washing, the radioactivity of the P81 paper was measured and kinase activity data were expressed as the percent remaining kinase activity in test samples compared to vehicle (dimethyl sulfoxide) reactions. IC50 values and curve fits were obtained using Prism (GraphPad Software).
# T1 sequence (Q8TDX7 whole entry): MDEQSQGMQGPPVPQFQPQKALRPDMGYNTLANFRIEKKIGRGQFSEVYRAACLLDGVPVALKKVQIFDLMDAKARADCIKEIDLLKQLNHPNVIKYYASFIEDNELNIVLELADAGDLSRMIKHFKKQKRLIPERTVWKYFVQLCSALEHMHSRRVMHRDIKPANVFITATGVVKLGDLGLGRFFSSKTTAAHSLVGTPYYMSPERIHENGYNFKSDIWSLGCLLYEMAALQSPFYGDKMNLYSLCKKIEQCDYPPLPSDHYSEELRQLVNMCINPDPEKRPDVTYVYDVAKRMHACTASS
row,pIC50,Structure (SMILES)
1,6.30 to 7.00,"CN1CC2CCC1CN2Cc1ccc(NC(=O)Nc2ccc(-c3cn(C4CC4)c4ncnc(N)c34)cc2F)cc1C(F)(F)F (centres unmarked) [Example I-9, 1-(4-(4-amino-7-cyclopropyl-7H-pyrrolo[2,3-d]pyrimidin-5-yl)-2-fluorophenyl)-3-(4-((5-methyl-2,5-diazabicyclo[2.2.2]octan-2-yl)methyl)-3-(trifluoromethyl)phenyl)urea]"
2,6.30 to 7.00,"Nc1ncnc2c1c(-c1ccc(NC(=O)Nc3ccc(OC4CCN(C5COC5)CC4F)c(C(F)(F)F)c3)c(F)c1)cn2C1CC1 (single isomer, unassigned) [Example I-92, 1-(4-(4-amino-7-cyclopropyl-7H-pyrrolo[2,3-d]pyrimidin-5-yl)-2-fluorophenyl)-3-(4-((3-fluoro-1-(oxetan-3-yl)piperidin-4-yl)oxy)-3-(trifluoromethyl)phenyl)urea]"
3,< 5.70,"CN1CCC(Cc2ccc(NC(=O)Nc3ccc(-c4cn(C5CC5)c5ncnc(N)c45)cc3F)cc2C(F)(F)F)CC1 [Example I-11, 1-(4-(4-amino-7-cyclopropyl-7H-pyrrolo[2,3-d]pyrimidin-5-yl)-2-fluorophenyl)-3-(4-((1-methylpiperidin-4-yl)methyl)-3-(trifluoromethyl)phenyl)urea]"
4,> 7.00,CN(C)C1CCN(Cc2ccc(NC(=O)Nc3ccc(-c4cn(C5CC5)c5ncnc(N)c45)cc3F)cc2C(F)(F)F)CC1 [Example I-69]
5,> 7.00,"CN1CCN(Cc2ccc(NC(=O)Nc3ccc(-c4cn(C5CN(C)C5)c5ncnc(N)c45)cc3F)cc2C(F)(F)F)CC1 [Example I-104, 1-(4-(4-amino-7-(1-methylazetidin-3-yl)-7H-pyrrolo[2,3-d]pyrimidin-5-yl)-2-fluorophenyl)-3-(4-((4-methylpiperazin-1-yl)methyl)-3-(trifluoromethyl)phenyl)urea]"
6,5.70 to 6.30,"Nc1ncnc2c1c(-c1ccc(NC(=O)Nc3ccc(CN4CCN(S(=O)(=O)C5CC5)CC4)c(C(F)(F)F)c3)c(F)c1)cn2C1CC1 [Example I-97, 1-(4-(4-amino-7-cyclopropyl-7H-pyrrolo[2,3-d]pyrimidin-5-yl)-2-fluorophenyl)-3-(4-((4-(cyclopropylsulfonyl)piperazin-1-yl)methyl)-3-(trifluoromethyl)phenyl)urea]"
7,5.70 to 6.30,"CN1CCN(Cc2ccc(NC(=O)Nc3ccc(-c4cn(C5CC5)c5ncnc(N)c45)cc3F)cc2C(F)(F)F)CC12CC2 [Example I-73, 1-(4-(4-amino-7-cyclopropyl-7H-pyrrolo[2,3-d]pyrimidin-5-yl)-2-fluorophenyl)-3-(4-((4-methyl-4,7-diazaspiro[2.5]octan-7-yl)methyl)-3-(trifluoromethyl)phenyl)urea]"
8,6.30 to 7.00,"Nc1ncnc2c1c(-c1ccc(NC(=O)Nc3ccc(CN4CCN(C5COC5)CC4)c(C(F)(F)F)c3)c(F)c1)cn2C1CC1 [Example I-86, 1-(4-(4-amino-7-cyclopropyl-7H-pyrrolo[2,3-d]pyrimidin-5-yl)-2-fluorophenyl)-3-(4-((4-(oxetan-3-yl)piperazin-1-yl)methyl)-3-(trifluoromethyl)phenyl)urea]"
9,6.30 to 7.00,"CN1CCN(Cc2ccc(NC(=O)Nc3ccc(-c4cn(C5CCC5)c5ncnc(N)c45)cc3F)cc2C(F)(F)F)CC1 [Example I-19, 1-(4-(4-amino-7-cyclobutyl-7H-pyrrolo[2,3-d]pyrimidin-5-yl)-2-fluorophenyl)-3-(4-((4-methylpiperazin-1-yl)methyl)-3-(trifluoromethyl)phenyl)urea]"
10,6.30 to 7.00,"CN1CCN(Cc2ccc(NC(=O)Nc3ccc(-c4cn(C5CC5)c5ncnc(N)c45)cc3F)cc2Cl)CC1 [Example I-37, 1-(4-(4-amino-7-cyclopropyl-7H-pyrrolo[2,3-d]pyrimidin-5-yl)-2-fluorophenyl)-3-(3-chloro-4-((4-methylpiperazin-1-yl)methyl)phenyl)urea]"
11,6.30 to 7.00,"CN1CCN(Cc2ccc(NC(=O)Nc3ncc(-c4cn(C5CC5)c5ncnc(N)c45)cc3F)cc2C(F)(F)F)CC1 [Example I-67, 1-(5-(4-amino-7-cyclopropyl-7H-pyrrolo[2,3-d]pyrimidin-5-yl)-3-fluoropyridin-2-yl)-3-(4-((4-methylpiperazin-1-yl)methyl)-3-(trifluoromethyl)phenyl)urea]"
12,5.70 to 6.30,"Nc1ncnc2c1c(-c1ccc(NC(=O)Nc3ccc(CN4CCCCC4)c(C(F)(F)F)c3)c(F)c1)cn2C1CC1 [Example I-95, 1-(4-(4-amino-7-cyclopropyl-7H-pyrrolo[2,3-d]pyrimidin-5-yl)-2-fluorophenyl)-3-(4-(piperidin-1-ylmethyl)-3-(trifluoromethyl)phenyl)urea]"
13,6.30 to 7.00,"Cc1cc(NC(=O)Nc2ccc(-c3nn(C(C)C)c4ncnc(N)c34)cc2)ccc1N1CCOCC1 [Example I-22, 1-(4-(4-amino-1-isopropyl-1H-pyrazolo[3,4-d]pyrimidin-3-yl)phenyl)-3-(3-methyl-4-morpholinophenyl)urea]"
14,6.30 to 7.00,"CNC1CCN(Cc2ccc(NC(=O)Nc3ccc(-c4cn(C5CC5)c5ncnc(N)c45)cc3F)cc2C(F)(F)F)CC1 [Example I-74, 1-(4-(4-amino-7-cyclopropyl-7H-pyrrolo[2,3-d]pyrimidin-5-yl)-2-fluorophenyl)-3-(4-((4-(methylamino)piperidin-1-yl)methyl)-3-(trifluoromethyl)phenyl)urea]"
15,> 7.00,"CN1CCCN(Cc2ccc(NC(=O)Nc3ccc(-c4cn(C5CC5)c5ncnc(N)c45)cc3F)cc2C(F)(F)F)CC1 [Example I-44, 1-(4-(4-amino-7-cyclopropyl-7H-pyrrolo[2,3-d]pyrimidin-5-yl)-2-fluorophenyl)-3-(4-((4-methyl-1,4-diazepan-1-yl)methyl)-3-(trifluoromethyl)phenyl)urea]"
16,< 5.70,"Cc1cc(NC(=O)Nc2ccc(-c3nn(C4COC4)c4ncnc(N)c34)cc2)ccc1N1CCOCC1 [Example I-23, 1-(4-(4-amino-1-(oxetan-3-yl)-1H-pyrazolo[3,4-d]pyrimidin-3-yl)phenyl)-3-(3-methyl-4-morpholinophenyl)urea]"
17,6.30 to 7.00,"CN1CCN(Cc2ccc(NC(=O)Nc3ccc(-c4cn(C5CC5)c5ncnc(N)c45)cc3Cl)cc2C(F)(F)F)CC1 [Example I-35, 1-(4-(4-amino-7-cyclopropyl-7H-pyrrolo[2,3-d]pyrimidin-5-yl)-2-chlorophenyl)-3-(4-((4-methylpiperazin-1-yl)methyl)-3-(trifluoromethyl)phenyl)urea]"
18,6.30 to 7.00,"CN1CCN(Cc2ccc(NC(=O)Nc3ccc(-c4nn(C5CC5)c5ncnc(N)c45)cn3)cc2C(F)(F)F)CC1 [Example I-30, 1-(5-(4-amino-1-cyclopropyl-1H-pyrazolo[3,4-d]pyrimidin-3-yl)pyridin-2-yl)-3-(4-((4-methylpiperazin-1-yl)methyl)-3-(trifluoromethyl)phenyl)urea]"
19,6.30 to 7.00,"CN1CCN(Cc2ccc(NC(=O)Nc3ccc(-c4cn(C5CC5)c5ncnc(N)c45)cc3F)cc2C(F)(F)F)C2(CC2)C1 [Example I-8, 1-(4-(4-amino-7-cyclopropyl-7H-pyrrolo[2,3-d]pyrimidin-5-yl)-2-fluorophenyl)-3-(4-((7-methyl-4,7-diazaspiro[2.5]octan-4-yl)methyl)-3-(trifluoromethyl)phenyl)urea]"
20,> 7.00,"CCN1CCC(Oc2ccc(NC(=O)Nc3ccc(-c4cn(C5CC5)c5ncnc(N)c45)cc3F)cc2C(F)(F)F)CC1 [Example I-88, 1-(4-(4-amino-7-cyclopropyl-7H-pyrrolo[2,3-d]pyrimidin-5-yl)-2-fluorophenyl)-3-(4-((1-ethylpiperidin-4-yl)oxy)-3-(trifluoromethyl)phenyl)urea]"
